Results: US20260042801A1, “COMPOSITIONS AND METHODS FOR DYE-BOUND CYCLIZED PEPTIDES FOR MEDICAL USE” (The Texas A&M University System, priority 2022, published 2026)

Tested on: C3
Assay: Astrocyte C3 staining (fluorescent intensity)
Type: cell-based, mouse
Conditions: astrocytes from 6-month-old male mice, 5 μM, 3 days
Protocol: FIGS. 4A-4D: 5c(i) induces Synapsin I production and reduces C3 and GSK-3s expression from astrocytes promoting neuron survival and neurite growth. Primary adult cortical astrocytes from 6-month-old male mice were incubated with 5 μM 5c(i) for 3 days. Graph represents mean±SEM of percent change in fluorescent intensity (Synapsin I and C3) or chemiluminescence (GSK-3β) relative to Vehicle (4A and 4D). Images represent the 4B) Vehicle and 4C) 5 μM 5c(i) treated groups stained with Synapsin I and DAPI. D) Cortical astrocytes from 6-month-old male mice were plated and treated with 5c(i) or Vehicle for 2 days. Cells were then washed and cortical neurons from 6-month-old male mice were added on top of the astrocytes. […] Scale bar=50 μm.
To determine if 5c(i) can modulate astrocytes, adult astrocytes from 6-month-old male mice were treated with 5c(i) for 3 days and stained with Synapsin I and C3 to measure changes in fluorescent intensity or western blot was conducted on the cell lysate to assess changes in GSK-3β expression (FIG. 4). […] To determine if 5c(i) treated astrocytes can directly benefit neuronal recovery, astrocytes were cultured with 5c(i) for 2 days before removing 5c(i) from the culture and plating adult neurons on top of the astrocytes for 2DIV, resulting in increased neuron survival and neurite growth. […]

Substance: C-DIRG-C BODIPY® (fluorescent dye) [5c(i)]
- C3 expression: reduction
